Assay results reported in ChEMBL document CHEMBL5537110, “SIRT1-dependent mitochondrial biogenesis supports therapeutic effects of 4-butyl-polyhydroxybenzophenone compounds against NAFLD” (Eur J Med Chem, 2023).
Active and inactive are the calls of the source. The calls are words filed in the database; no cut-off is given here.

Key:
EA.hy 926 [1] = experiment: Cytoprotective activity against H2O2-induced toxicity in human EA.hy 926 cells assessed as protective rate at 10 uM pretreated with compound for 4 hrs followed by incubation with H2O2 for 2 hrs by absorbance based analysis; assay type: functional; settings: time 6 hrs
EA.hy 926 [2] = experiment: Cytoprotective activity against H2O2-induced toxicity in human EA.hy 926 cells assessed as protective rate pretreated with compound for 4 hrs followed by incubation with H2O2 for 2 hrs by absorbance based analysis; assay type: functional, cell-based
[3] = biological target: T1, Peroxisome proliferator-activated receptor gamma coactivator 1-alpha (Homo sapiens) (UniProt Q9UBK2); experiment: (§1) Binding affinity to PGC1alpha (unknown origin) by surface plasmon resonance assay; settings: filed as activator
T1 sequence (whole entry): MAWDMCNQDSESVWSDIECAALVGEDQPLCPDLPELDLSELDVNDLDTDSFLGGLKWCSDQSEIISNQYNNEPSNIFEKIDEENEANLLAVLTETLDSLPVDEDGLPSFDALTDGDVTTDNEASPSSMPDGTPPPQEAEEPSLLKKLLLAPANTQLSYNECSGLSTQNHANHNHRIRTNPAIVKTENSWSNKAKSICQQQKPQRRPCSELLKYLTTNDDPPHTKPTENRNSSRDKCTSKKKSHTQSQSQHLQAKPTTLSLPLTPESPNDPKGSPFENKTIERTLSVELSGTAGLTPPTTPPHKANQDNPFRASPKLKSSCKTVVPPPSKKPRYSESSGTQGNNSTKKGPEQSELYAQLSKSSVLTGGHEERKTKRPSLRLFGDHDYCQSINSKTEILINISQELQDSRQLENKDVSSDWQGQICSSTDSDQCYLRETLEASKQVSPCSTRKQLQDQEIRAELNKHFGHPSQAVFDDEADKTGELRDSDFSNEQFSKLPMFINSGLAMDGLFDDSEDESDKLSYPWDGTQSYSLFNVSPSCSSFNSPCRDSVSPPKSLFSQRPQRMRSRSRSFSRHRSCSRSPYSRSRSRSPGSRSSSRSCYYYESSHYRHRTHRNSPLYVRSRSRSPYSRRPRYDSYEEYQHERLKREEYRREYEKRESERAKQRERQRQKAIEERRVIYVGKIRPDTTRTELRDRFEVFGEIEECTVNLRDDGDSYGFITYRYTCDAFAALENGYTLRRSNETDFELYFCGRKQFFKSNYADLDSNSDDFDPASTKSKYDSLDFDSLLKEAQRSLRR

[4] = biological target: T2, Peroxisome proliferator-activated receptor gamma coactivator 1-alpha (Homo sapiens, UniProt Q9UBK2); experiment: as §1
T2 sequence (Q9UBK2 whole entry): T1 sequence (whole entry)

Mitochondria = experiment: Inhibition of mitochondrial dysfunction in 40% FBS-induced steatosis human HepG2 cells model assessed as mitochondria with less swelling and organized mitochondrial cristae at 5 uM incubated for 24 hrs by transmission electron microscopy; assay type: functional
HepG2 [5] = experiment: Recovery of mitochondrial biogenesis in 40% FBS-induced steatosis human HepG2 cells model assessed as increase in SIRT1 protein expression incubated for 24 hrs by western blot analysis; assay type: functional, cell-based; settings: dose 0.2-5 µM
HepG2 [6] = experiment: Recovery of mitochondrial biogenesis in 40% FBS-induced steatosis human HepG2 cells model assessed as increase in NRF1 protein expression incubated for 24 hrs by western blot analysis; assay type: functional, cell-based; settings: dose 0.2-5 µM
HepG2 [7] = experiment: Recovery of mitochondrial biogenesis in 40% FBS-induced steatosis human HepG2 cells model assessed as increase in TFAM protein expression incubated for 24 hrs by western blot analysis; assay type: functional, cell-based; settings: dose 0.2-5 µM
HepG2 [8] = experiment: Recovery of energy production in 40% FBS-induced steatosis human HepG2 cells model assessed as upregulation of mitochondrial ATP production incubated in steatosis inducing DMEM with 40% FBS medium for 24 hrs followed by compound treatment by luciferase based assay; assay type: functional, cell-based; settings: Mitochondria, dose 0.2-5 µM
HepG2 [9] = experiment: Inhibition of lipid toxicity in 40% FBS-induced steatosis human HepG2 cells model assessed as decrease in lipid accumulation at 0.2 to 5 uM incubated in steatosis inducing DMEM with 40% FBS medium for 24 hrs followed by compound treatment by Oil red O staining based analysis; assay type: functional, cell-based; settings: dose 0.2-5 µM
HepG2 [10] = experiment: Inhibition of lipid toxicity in 40% FBS-induced steatosis human HepG2 cells model assessed as decrease in triglyceride content at 0.2 to 5 uM incubated in steatosis inducing DMEM with 40% FBS medium for 24 hrs followed by compound treatment; assay type: functional, cell-based; settings: dose 0.2-5 µM
Rattus norvegicus [11] = experiment: Hepatoprotective activity against high fat diet-fed NAFLD Sprague-Dawley rat model assessed as inhibition of diet-induced body weight gain administered intragastrically via gavage for 4 weeks; assay type: functional, organism-based; settings: dose 12.3-61.4 mg/kg, route ig
Rattus norvegicus [12] = experiment: Hepatoprotective activity against high fat diet-fed NAFLD Sprague-Dawley rat model assessed as decrease in serum GDH level administered intragastrically via gavage for 4 weeks; assay type: functional, organism-based; settings: dose 12.3-61.4 mg/kg, route ig
Rattus norvegicus [13] = experiment: Hepatoprotective activity against high fat diet-fed NAFLD Sprague-Dawley rat model assessed as increase in serum GSH level administered intragastrically via gavage for 4 weeks; assay type: functional, organism-based; settings: dose 12.3-61.4 mg/kg, route ig
HepG2 [14] = experiment: Induction of mitochondrial biogenesis in human HepG2 cells assessed as TFAM protein expression incubated for 24 hrs in presence of SIRT1 inhibitor, EX527 by western blot analysis; assay type: functional, cell-based
HepG2 [15] = experiment: Induction of mitochondrial biogenesis in human HepG2 cells assessed as mitochondrial COX1 protein expression incubated for 24 hrs in presence of SIRT1 inhibitor, EX527 by western blot analysis; assay type: functional, cell-based
HepG2 [16] = experiment: Induction of mitochondrial biogenesis in human HepG2 cells assessed as NRF1 mRNA expression incubated for 24 hrs in presence of SIRT1 inhibitor, EX527 by qRT-PCR analysis; assay type: functional, cell-based
HepG2 [17] = experiment: Induction of mitochondrial biogenesis in human HepG2 cells assessed as TFAM mRNA expression incubated for 24 hrs in presence of SIRT1 inhibitor, EX527 by qRT-PCR analysis; assay type: functional, cell-based
HepG2 [18] = experiment: Induction of mitochondrial biogenesis in human HepG2 cells assessed as mitochondrial COX1 mRNA expression incubated for 24 hrs in presence of SIRT1 inhibitor, EX527 by qRT-PCR analysis; assay type: functional, cell-based

- Activity [3]: Dose-Dependent Effect
- Kd [4]: 172 µM
SMILES: CC(C)(C)c1ccc(C(=O)c2ccc(O)c(O)c2)cc1
- Activity (EA.hy 926 [1]): 87.46%
- EC50 (EA.hy 926 [2]): 0.0723 µM
- inhibition (Mitochondria): Active
- Activity (HepG2 [5]): Dose-Dependent Effect
- Activity (HepG2 [6]): Dose-Dependent Effect
- Activity (HepG2 [7]): Dose-Dependent Effect
- Activity (HepG2 [8]): Dose-Dependent Effect
- inhibition (HepG2 [9]): Active
- inhibition (HepG2 [10]): Active
- Activity (Rattus norvegicus [11]): Dose-Dependent Effect
- Activity (Rattus norvegicus [12]): Active
- Activity (Rattus norvegicus [13]): Active
- Activity (HepG2 [14]): inactive
- Activity (HepG2 [15]): inactive
- Activity (HepG2 [16]): inactive
- Activity (HepG2 [17]): inactive
- Activity (HepG2 [18]): inactive
